The values that follow come from US12349708B2, “Use and methods of 1,3-propanediol to improve taste and/or off-taste qualities” (Primient Covation LLC, priority 2019, dated 2025).

The test system of experiment [1] is experienced and trained panelist. The experiment in a line: Sensorial comparison of energy shot prototypes at various malic acid and sucralose levels with and without bioPDO (Example 5). Format: in vivo, human. To be noted: 0.2% bioPDO; sucralose and malic acid lowered by 32% and 47%. As for the experimental part: • 1. Take 1st sip from a full 30 mL medicine cup, taste and swallow the 1st sample, wait 10 seconds, then take a 2nd sip and lock it into memory. Wait for 10 seconds. • 2. Proceed with 2nd sample. Taste 1st sip of the 2nd sample, wait for 10 seconds, and then use the 2nd sip to compare to the 2nd sip (or 3rd sip) of the 1st sample.
Each paired sample evaluation was repeated in triplicate with at least a 10-minute break and a carbon-treated water rinse.
The theory is to try to establish a reduced amount (concentration) of malic acid to match its sourness intensity of our energy shot prototype w/bioPDO to the control, energy shot prototype without bioPDO. Secondly, if this adjustment of lowering the malic acid concentration results in increasing sweetness, an additional step will be performed to reduce the amount of sucralose until both sourness and sweetness taste match that of the control w/o bioPDO. Below are the comparative sensorial evaluation results in Tables 33-36 including their specific sample formulations, observations, and results. Keywords of SUL, MA and CAF are sucralose, malic acid, and caffeine, respectively.

Experiment [2] has as its system descriptive panel of 8 panelists. Description: Descriptive analysis of 5HE, BANG and energy shot prototype drinks with and without bioPDO (Example 6). To be noted: addition of bioPDO (0.1%). Format: in vivo, human. Here is the method: A formal sensory testing called descriptive analysis (DA) was performed by 8 trained panelists in triplicate (n=24) on energy shot prototype, BANG prototype samples, and 5HE SHOT prototype samples with & without bioPDO. All samples were served to panelists at ambient temperature 20±2° C.
A qualified descriptive panel of 8 panelists, experienced in the sensory analysis of a range of products, was used for this research.
The protocol for descriptive analysis was divided into two distinct phases. 1) During the panel orientation phase, panelists tasted the samples and formulated a lexicon of descriptive taste, mouthfeel, aftertaste and after feel attributes to describe them. A final list of 3 taste, 3 mouthfeel, 3 aftertaste and 1 after feel attributes were determined (Table 37). During the sample testing phase, which took place over 2 separate days, the products were evaluated in triplicate (total evaluations n=24). […]
Following consumption of the 1st sip, panelists assessed the attribute ‘initial harshness mouthfeel’. The remaining attributes (including ‘harshness mouthfeel’) were then measured by panelists on the 2nd sip. Aftertaste/feel attributes were measured 30 seconds after ingestion of the 2nd sip. […]
The sensory attributes of the products were scored on unstructured 10 cm line scales labeled at both ends with extremes of each descriptive term. […]

Experiment [3] in a line: Comparison of energy shot prototypes with and without caffeine and bioPDO (Example 7). Particulars: samples without caffeine. Format: in vivo, human. As for the experimental part:
• 1. Take 1st sip from a full 30 mL medicine cup, taste and swallow the 1st sample, wait 10 seconds, then take a 2nd sip and lock it into memory. Wait for 10 seconds. • 2. Proceed with 2nd sample. Taste 1st sip of the 2nd sample, wait for 10 seconds, and then use the 2nd sip to compare to the 2nd sip of the 1st sample. • 3. Rinse with DW and wait for approximately 15 seconds. Repeat step 2 for each if extra sampling needed, not to exceed four samples at a time.
Each paired sample evaluation was repeated in duplicate with at least a 10-minute break and a carbon-treated water rinse.
The following samples were prepared for this study: • 1. Existing Sample #3A (Energy shot prototype) without bioPDO. • 2. Existing Sample #3B (Energy shot prototype) with bioPDO. • 3. New Sample #4A with similar levels of sucralose and malic acid as Sample #3A, BUT without bioPDO and caffeine as an experimental sample. • 4. New Sample #4B with similar levels of sucralose, malic acid and bioPDO as Sample #3B, BUT without caffeine as an experimental sample. Results
This study was designed so it would be possible to directly identify any other ‘off-taste’ attribute. […] Below are the comparative sensorial evaluation results in Table 42 including their specific sample formulations, observations and results. Keywords of SUL, MA and CAF are sucralose, malic acid and caffeine, respectively.

Experiment [4] is described as follows: Taste of juices and yogurts with 1,3-propanediol. Format: in vivo.

On to `OCCCO` [PDO, 1,3-propanediol], for which the “taste quality effect of 0.2% addition” value in experiment [1] was “failed to further improve”. Further, in experiment [2], the “overall taste quality of energy shots/drink” value was “significantly improves overall taste quality”. Moreover, the “modulation of sweet and sour intensities” value in experiment [3] is “does not positively or negatively modulate the sweet and sour intensities”. Also, the taste modulation entry in experiment [4] (Greek yogurt, with vs without) is “less bitter and sweeter”; in experiment [4] (Vanilla yogurt, with vs without), “less bitter and somewhat sweeter”; in experiment [4] (cranberry juice), “reduced both the bitterness and the sweetness”; in experiment [4] (grapefruit juice) it was “decrease the bitterness and increase the sweetness”; in experiment [4] (orange juice, with vs without), “less bitter and somewhat sweeter”.
